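Five compound concentrations were applied to cells in 96-well plates for 48 hours; endpoints were derived by simple linear interpolation of the resulting dose-response curve. The concentration for full growth arrest is given as TGI.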

Common to all, as to assay: inhibition of tumour cell growth, NCI panel, 48 h
For test [1], the system named is U251 CNS.
In test [2] the test system is MOLT-4 leukemia.
The test system of test [3] is SNB-75 CNS.
For test [4], the system named is EKVX NSCLC.
Test [5] has as its system ACHN renal.
Test [6] concerns A549 NSCLC.
For test [7], the system named is RPMI-8226 leukemia.
The subject of test [8] is A498 renal.
Test [9] deals with K-562 leukemia.
Test [10] has as its system UO-31 renal.
In test [11] the test system is OVCAR-3 ovarian.
In test [12] the test system is KM12 colon.
The subject of test [13] is SF-268 CNS.
The test system of test [14] is UACC-257 melanoma.
Test [15] relates to PC-3 prostate.
For test [16], the system named is LOX IMVI melanoma.
The test system of test [17] is OVCAR-5 ovarian.
Test [18] concerns NCI/ADR-RES ovarian.

In the case of `Nc1ncnc2c1ccn2CC#CCO`, the TGI in test [1], in [2], in test [3], in [4], in [5] and in test [6] was greater than 100 µM in each case. For the same compound, the TGI in [7], in test [8], in [9], in [10], in test [11] and in test [12] was greater than 100 µM in each case. Besides, the TGI in [13], in test [14], in [15], in test [16], in [17] and in test [18] was greater than 100 µM in each case.
In the case of `O=[N+]([O-])C(C(Cl)=C(Cl)Cl)=C(N1CCCCC1)N1CCCCC1`, the TGI in [1], in test [2], in test [3], in test [4], in [5] and in test [6] was greater than 100 µM in each case. Also, the TGI in test [7], in test [8], in [9], in [10], in test [11] and in test [12] was greater than 100 µM throughout. Also, the TGI in test [13], in test [14], in [15], in test [16], in test [17] and in [18] was greater than 100 µM throughout.
For `C1CSCCSCCSCCSCCS1`, the TGI in [1], in [2], in [3], in [4], in test [5] and in test [6] was greater than 100 µM each time. Further, the TGI in [7], in test [8], in test [9], in test [10], in [11] and in [12] was greater than 100 µM throughout. Besides, the TGI in [13], in test [14], in test [15], in [16], in [17] and in test [18] was greater than 100 µM in each case.
Take `CN1C(=O)C(=Cc2ccc(Br)cc2)C(=O)N(C)C1=O`: the TGI in test [1], in [2], in [3], in test [4], in test [5] and in test [6] was greater than 100 µM each time. For the same compound, the TGI in test [7], in [8], in test [9], in [10], in test [11] and in [12] was greater than 100 µM each time. For the same compound, the TGI in [13], in [14], in [15], in test [16], in test [17] and in [18] was greater than 100 µM each time.
For the compound `CC/C(Cl)=N\OC(=O)Nc1ccc(F)c(Cl)c1`, the TGI in test [1] worked out at 33.9 µM; in [2], 2.11 µM; in test [3], 26.2 µM; in test [4], 32.9 µM; in [5], 26.7 µM; in [6], 54.9 µM. The TGI is greater than 100 µM in test [7]; 30.8 µM in test [8]; 3.26 µM in [9]; 32.3 µM in test [10]; 8.03 µM in [11]; 35 µM in test [12]. Moreover, the TGI in test [13] was 43.4 µM; in test [14], 31.9 µM; in [15], 29.6 µM; in test [16], 9.68 µM; in test [17], 31.4 µM; in test [18], 42.7 µM.
For `CN(C)c1n2c3ccc([N+](=O)[O-])cc3n3c(N(C)C)[n+]4ccccc4c3c2c2cccc[n+]12`, the TGI in test [1], in [2], in test [3], in test [4], in test [5] and in [6] was greater than 100 µM throughout. Besides, the TGI in test [7], in [8], in test [9], in test [10], in test [11] and in test [12] was greater than 100 µM each time. The TGI in [13], in test [14], in test [15], in test [16], in test [17] and in test [18] was greater than 100 µM each time.
In the case of `CNC(=O)O/N=C1\N(C)CN(c2ccccc2)C12CCN(CCCC(=O)c1ccc(F)cc1)CC2`, the TGI in test [1] is greater than 100 µM; in [2], greater than 100 µM; in test [3] it was 24.3 µM; in test [4], greater than 100 µM; in test [5] it was greater than 100 µM; in [6], greater than 100 µM. Further, the TGI in test [7] was greater than 100 µM; in test [8], greater than 100 µM; in [9], greater than 100 µM; in test [10], greater than 100 µM; in test [11], greater than 100 µM; in test [12] it was 81.7 µM. Moreover, the TGI is greater than 100 µM in [13]; 35.4 µM in test [14]; greater than 100 µM in test [15]; greater than 100 µM in test [16]; greater than 100 µM in test [17]; greater than 100 µM in test [18].
Turning to `COC1(OC)CCN(Cc2ccccc2)C1=O`, the TGI in [1] was 34.1 µM; in test [2], greater than 100 µM; in test [3] it was 30.6 µM; in test [4], 29.7 µM; in test [5] it was 19.7 µM; in test [6], 32.3 µM. For the same compound, the TGI was 42.8 µM in test [7]; 44 µM in [8]; greater than 37.9 µM in test [9]; 22.8 µM in test [10]; 23.7 µM in [11]; 32.2 µM in test [12]. Also, the TGI was greater than 52.8 µM in test [13]; 28.6 µM in [14]; 27.8 µM in [15]; 16.6 µM in test [16]; 31.8 µM in [17]; 55.3 µM in test [18].
`COc1ccc2nc3ccc(OC)cc3c(S(=O)Cc3ccccc3)c2c1` (stereo unspecified): the TGI in test [1] is greater than 56.1 µM; in [2], greater than 23.6 µM; in test [3], 28.8 µM; in test [4], 30.5 µM; in [5], 15.2 µM; in test [6] it was 37.3 µM. Also, the TGI in [7] is 6.6 µM; in [8], 38.9 µM; in test [9] it was greater than 25.6 µM; in test [10] it was 22.8 µM; in test [11], 26.1 µM; in test [12] it was 40.5 µM. Also, the TGI in test [13] was 40.2 µM; in test [14], 20.9 µM; in [15] it was 27.2 µM; in test [16], 6.66 µM; in test [17] it was 35.3 µM; in [18], 46.7 µM.
As for `CC(C)(C)OC(=O)N(O)CCCn1cnc2c(NC3CC3)ncnc21`, the TGI in [1], in test [2], in test [3], in test [4], in [5] and in test [6] was greater than 100 µM throughout. Moreover, the TGI in [7], in test [8], in test [9], in test [10], in [11] and in test [12] was greater than 100 µM each time. The TGI in test [13], in [14], in test [15], in test [16], in test [17] and in [18] was greater than 100 µM throughout.
`NC(=O)C1=C(O)[C@@]2(O)C(=O)C3=C(O)c4c(O)cccc4CC3C[C@H]2CC1=O` (stereo partly specified): the TGI in [1] was 12.8 µM; in [2], 10.6 µM; in test [3], 8.35 µM; in [4], 9.23 µM; in test [5], 19.5 µM; in test [6], 14.9 µM. Further, the TGI was 6.12 µM in test [7]; 12.9 µM in test [8]; greater than 61.5 µM in [9]; 10.5 µM in [10]; 14.7 µM in test [11]; 23.4 µM in test [12]. Besides, the TGI in test [13] is 17.8 µM; in [14] it was 28.6 µM; in [15], 9.71 µM; in test [16], 10.5 µM; in [17] it was 12.3 µM; in test [18], 13.7 µM.
In the case of `COc1ccc2nc3c4c(nccc4c2c1)-c1ncccc1C3=O`, the TGI worked out at 1.75 µM in test [1]; 5.31 µM in test [2]; 0.378 µM in test [3]; 0.903 µM in test [4]; 0.174 µM in test [5]; 0.338 µM in test [6]. For the same compound, the TGI in test [7] was determined as 0.236 µM; in [8] it was 0.224 µM; in test [9], 0.174 µM; in [10] it was 0.706 µM; in test [11], 0.0569 µM; in test [12], 0.706 µM. Moreover, the TGI in test [13] was 3.96 µM; in test [14], 0.196 µM; in [15], 3.14 µM; in test [16], 0.0977 µM; in test [17], 2.1 µM; in [18], 7.62 µM.

Source of the values: PubChem BioAssay (NCI).
